Laboratory results from patent publication EP0587396A1, “Use of hypoxoside derivatives for the treatment of viral infections” (VIROSTAT (NA) NV, priority 1992, dated 1994).
Read-outs that look alike come from different tables or passages of the source.

Tests used:
[1] = Toxicity: lymphocyte proliferation assay with MTT in the HIV-1 infected PBL cultures; type: cell-based; details: human, pbls
Method: Possible toxic effects of the test substances were measured by viability testing using Trypan blue or a proliferation assay using3-(4,5-dimethylthiazol-2-yl)-2,5-diphenyl-2H-tetrazolium bromide (MTT) on day 4 or day 6 after initiation of the experiment (Borenfreund et al: Toxicol. In Vitro, 1988, 2, 1-6).
The toxicity of the drug was expressed as a percentage inhibition of lymphocyte proliferation as measured with MTT and compared with controls receiving the virus but no drug.

[2] = test system: human immunodeficiency virus type 1 (HIV-1); assay: Inhibition of HIV-1 proliferation in PHA-activated human PBL's (p24 core protein by Sandwich ELISA, HIV RNA by labelled DNA probe hybridization); type: cell-based; details: for inhibition of p24 core protein production: 10 ng/mℓ
Method: Compounds I - XXVIII were subjected to in vitro testing for inhibition of human immunodeficiency virus type 1 (HIV-1) proliferation as follows:
Human peripheral blood lymphocytes (PBL's) obtained by density gradient centrifugation of blood from healthy volunteers at a blood bank were pooled and used for the propagation of HIV-1 in vitro.
The PBL's were polyclonally activated with phytohaemagglutinin (PHA) and subjected to quality controls whereby their viability was tested with Trypan blue exclusion and the expression of activation antigens, CD4⁺ and CD25⁺ was measured by immunofluorescence. Prior to adding the test substance, the activated PBL's were exposed to a standardized titre of HIV-1 virus and after incubation for 60 minutes the cells were washed twice and plated into microtitre plates at a concentration of 2X10⁶ cells/well. The medium contained interleukin-2 and in control wells the virus produced between 50 and 100 ng/mℓ of p24 core protein on day 4. The test substance was added to these cultures either in water or dimethyl sulphoxide (DMSO) depending on solubility characteristics. The final DMSO concentration, when used, was always 1% v/v.
HIV replication was measured as the production of p24 core protein and the production of HIV RNA on days 2, 3 and 4, or on days 3, 4, 5 and 6. Core protein p24 was measured using 'Sandwich ELISA' technology using inter alia a monoclonal antibody against p24 core protein. The HIV RNA was measured using a specific labelled DNA probe against HIV RNA and the process of hybridization.
Results were expressed as percent inhibition of HIV-1 p24 core protein production or RNA production on days 3, 4 or 6.
In each test, cells were also exposed to HIV-1 and 3'-azido-3'-deoxythymidine (also known as Zidovudine or AZT) at 100, 10, 1 and 0.1 ng/mℓ. This was a positive control and compounds tested were compared to the inhibitory effect of 10 ng/mℓ AZT.
In all of the following Tables, percentage inhibition refers to inhibition of p24 core protein production and HIV RNA production relative to infected controls. Percentage AZT inhibition refers to inhibition caused by 10 ng/mℓ AZT at the end of the experiment, i.e. after 4 or 6 days.

CD4⁺ cells = details: standard doses (250 mg/4 hours) and reduced doses (100 mg/4 hours) for 30 months; Fisch et al; cited from earlier work

Structure (SMILES): OC[C@H]1O[C@@H](Oc2ccc(C#CC/C=C/c3ccc(O[C@@H]4O[C@H](CO)[C@@H](O)[C@H](O)[C@H]4O)c(O)c3)cc2O)[C@H](O)[C@@H](O)[C@@H]1O [Compound V, E-1,5-bis(3'-hydroxy-4'-O-β-D-glucopyranosylphenyl)pent-4-en-1-yne]
- viability ([1]; 6.25 µg/mℓ, dissolved in water, standard titre of HIV-1, read-out: Proliferation as a percentage of control value): 94%
- viability ([1]; 6.25 µg/ℓ, viral titre lowered ten-fold, read-out: Proliferation as a percentage of control value): 94%
- viability ([1]; 12.5 µg/mℓ, dissolved in water, standard titre of HIV-1, read-out: Proliferation as a percentage of control value): 94%
- viability ([1]; 12.5 µg/ℓ, viral titre lowered ten-fold, read-out: Proliferation as a percentage of control value): 94%
- viability ([1]; 25 µg/mℓ, dissolved in water, standard titre of HIV-1, read-out: Proliferation as a percentage of control value): 93%
- viability ([1]; 25 µg/ℓ, viral titre lowered ten-fold, read-out: Proliferation as a percentage of control value): 93%
- viability ([1]; 50 µg/mℓ, dissolved in water, standard titre of HIV-1, read-out: Proliferation as a percentage of control value): 82%
- viability ([1]; 50 µg/ℓ, viral titre lowered ten-fold, read-out: Proliferation as a percentage of control value): 82%
- % inhibition:p24 core protein ([2]; 6.25 µg/mℓ, dissolved in water, after 6 days, standard titre of HIV-1): 5%
- % inhibition:p24 core protein ([2]; 12.5 µg/mℓ, dissolved in water, after 6 days, standard titre of HIV-1): 5%
- % inhibition:p24 core protein ([2]; 25 µg/mℓ, dissolved in water, after 6 days, standard titre of HIV-1): 9%
- % inhibition:p24 core protein ([2]; 25 µg/ℓ, viral titre lowered ten-fold): 90%
- inhibition at 6.25 µg/mL ([2]; Human immunodeficiency virus 1, 144 h, read-out: % inhibition: HIV-RNA, 6.25 µg/mℓ, dissolved in water, after 6 days, standard titre of HIV-1): 42%
- inhibition at 12.5 µg/mL ([2]; Human immunodeficiency virus 1, 144 h, read-out: % inhibition: HIV-RNA, 12.5 µg/mℓ, dissolved in water, after 6 days, standard titre of HIV-1): 65%
- inhibition at 25 µg/mL ([2]; Human immunodeficiency virus 1, 144 h, read-out: % inhibition: HIV-RNA, 25 µg/mℓ, dissolved in water, after 6 days, standard titre of HIV-1): 83%
- inhibition at 50 µg/mL ([2]; Human immunodeficiency virus 1, 144 h, read-out: % inhibition: HIV-RNA, 50 µg/mℓ, dissolved in water, after 6 days, standard titre of HIV-1): 100%
- inhibition at 0.00625 µg/mL ([2]; Human immunodeficiency virus 1, read-out: % inhibition:HIV-RNA, 6.25 µg/ℓ, viral titre lowered ten-fold): 0%
- inhibition at 0.0125 µg/mL ([2]; Human immunodeficiency virus 1, read-out: % inhibition:HIV-RNA, 12.5 µg/ℓ, viral titre lowered ten-fold): 11%
- inhibition at 0.025 µg/mL ([2]; Human immunodeficiency virus 1, read-out: % inhibition:HIV-RNA, 25 µg/ℓ, viral titre lowered ten-fold): 97%
- inhibition at 0.05 µg/mL ([2]; Human immunodeficiency virus 1, read-out: % inhibition:HIV-RNA, 50 µg/ℓ, viral titre lowered ten-fold): 99%

Structure (SMILES): Cc1cn([C@H]2C[C@H](N=[N+]=[N-])[C@@H](CO)O2)c(=O)[nH]c1=O [AZT, 3'-azido-3'-deoxythymidine, reference compound]
- transient mean increase of CD4⁺ cells (CD4⁺ cells): 25 cells/mm³ of blood
- inhibition of p24 core protein production ([2]; positive control of Table 2 (6 days, standard titre)): 20%
- inhibition of p24 core protein production ([2]; positive control of Table 4 (after 3 days)): 50%
- inhibition of p24 core protein production ([2]; positive control of Table 5 (after 6 days)): 50%
- inhibition of p24 core protein production ([2]; positive control of Table 6 (6 days, standard viral titre)): 20%
- inhibition of p24 core protein production ([2]; positive control of Table 8 (3 days incubation)): 50%
- inhibition of p24 core protein production ([2]; positive control of Table 12 (3 days incubation)): 50%
- inhibition at 0.01 µg/mL ([2]; Human immunodeficiency virus 1, 72 h, read-out: inhibition of HIV-RNA production, 10 ng/mℓ, positive control of Table 4 (after 3 days)): 46%
- inhibition at 0.01 µg/mL ([2]; Human immunodeficiency virus 1, 72 h, read-out: inhibition of HIV-RNA production, 10 ng/mℓ, positive control of Table 8 (3 days incubation)): 46%
- inhibition at 0.01 µg/mL ([2]; Human immunodeficiency virus 1, 72 h, read-out: inhibition of HIV-RNA production, 10 ng/mℓ, positive control of Table 12 (3 days incubation)): 46%
- inhibition at 0.01 µg/mL ([2]; Human immunodeficiency virus 1, 96 h, read-out: inhibition of HIV RNA production, 10 ng/mℓ, positive control of the crude extract test (4 days)): 96%
- inhibition at 0.01 µg/mL ([2]; Human immunodeficiency virus 1, 96 h, read-out: inhibition of HIV-RNA production, 10 ng/mℓ, day 4, positive control of Table 13): 100%
- inhibition at 0.01 µg/mL ([2]; Human immunodeficiency virus 1, 96 h, read-out: inhibition of HIV-RNA production, 10 ng/mℓ, positive control of Table 11 (4 days)): 97%
- inhibition at 0.01 µg/mL ([2]; Human immunodeficiency virus 1, 144 h, read-out: inhibition of HIV-RNA production, 10 ng/mℓ, day 6, positive control of Table 13): 100%
- inhibition at 0.01 µg/mL ([2]; Human immunodeficiency virus 1, 144 h, read-out: inhibition of HIV-RNA production, 10 ng/mℓ, positive control of Table 2 (6 days, standard titre)): 68%
- inhibition at 0.01 µg/mL ([2]; Human immunodeficiency virus 1, 144 h, read-out: inhibition of HIV-RNA production, 10 ng/mℓ, positive control of Table 5 (after 6 days)): 46%
- inhibition at 0.01 µg/mL ([2]; Human immunodeficiency virus 1, 144 h, read-out: inhibition of HIV-RNA production, 10 ng/mℓ, positive control of Table 6 (6 days, standard viral titre)): 68%
- inhibition at 0.01 µg/mL ([2]; Human immunodeficiency virus 1, 144 h, read-out: inhibition of HIV-RNA production, 10 ng/mℓ, positive control of Table 8 continued (6 days incubation)): 92%
- inhibition at 0.01 µg/mL ([2]; Human immunodeficiency virus 1, 144 h, read-out: inhibition of HIV-RNA production, 10 ng/mℓ, positive control of Table 9 (6 days)): 92%
- inhibition at 0.01 µg/mL ([2]; Human immunodeficiency virus 1, 144 h, read-out: inhibition of HIV-RNA production, 10 ng/mℓ, positive control of Table 10 (6 days)): 92%
- inhibition at 0.01 µg/mL ([2]; Human immunodeficiency virus 1, read-out: inhibition of HIV-RNA production, 10 ng/mℓ, positive control of Table 7 (ten-fold dilution of standard viral titre)): 99%
- inhibition at 0.01 µg/mL ([2]; Human immunodeficiency virus 1, read-out: inhibition of HIV-RNA, 10 ng/mℓ, positive control of Table 3 (viral titre lowered ten-fold)): 99%

Structure (SMILES): O=S(=O)(O)Oc1ccc(C#CC/C=C/c2ccc(OS(=O)(=O)O)cc2)cc1 [Compound XVIII]
- viability ([1]; 50 µg/mℓ, Table 10 (6 days), read-out: Proliferation as a percentage of control value): 63%
- viability ([1]; 100 µg/mℓ, Table 10 (6 days), read-out: Proliferation as a percentage of control value): 50%
- % inhibition:p24 core protein ([2]; 50 µg/mℓ, after 6 days): 79%
- inhibition at 50 µg/mL ([2]; Human immunodeficiency virus 1, 144 h, read-out: % inhibition:HIV-RNA, 50 µg/mℓ, after 6 days): 87%
- inhibition at 100 µg/mL ([2]; Human immunodeficiency virus 1, 144 h, read-out: % inhibition:HIV-RNA, 100 µg/mℓ, after 6 days): 100%
